{"source": "patent US5525329A", "about": "“Inhibition of phosphodiesterase in olfactory mucosa” (priority 1995, dated 1996)", "key": {"[1]": {"system": "phosphodiesterase, olfactory mucosa", "assay": "PDE activity in homogenates of olfactory mucosa (turbinates)", "format": "biochemical, rat", "settings": "for reduction of PDE activity / inhibition of cAMP hydrolysis / inhibition of cGMP hydrolysis: 10 μM drug; for inhibition of cAMP hydrolysis: 1 μM cAMP, no added Ca^2+", "protocol": "(§1) Assays were performed with 100 μM Ca^2+ (hatched bars) or with 100 μM EGTA (solid bars).\n(§2) Enzymol. […] Tissue was warmed to 37° C. and 100 μl aliquots containing 1-2 […] protein added to initiate the assay which was conducted for 20 minutes at 37° C. […] For experiments at 100 μM free Ca^2+, the reaction mix included 0.2 mM CaCl2 and 50 nM calmodulin (Sigma) where appropriate. Low Ca^2+ conditions were achieved by addition of 2.0 mM EGTA. Ca^2+ levels were measured against standards using a conductivity meter and Ca^2+ electrode (Biomedical Instrumentation Group, Philadelphia, Pa.). Following incubation, reactions were stopped by boiling for 1.5 minutes and cooling on ice, whereupon 100 μl aliquots of 5'-nucleotidase (10 units/ml in 0.1M Tris pH 8.1) were added and samples incubated for 30 minutes at 37° C. Incubation mixtures were applied to QAE-Sephadex columns pre-equilibrated with 30 mM ammonium formate, with flow through and eluate from two 1 ml washes collected in plastic scintillation vials.\nSubcellular fractions were obtained as described below. Rats were anesthetized with carbon dioxide, decapitated and tissue dissected. Nasal turbinates were dissected intact and consisted of the entire olfactory mucosa, including endothelial tissue, olfactory epithelium, and overlying mucous. […] For fractionation, tissue was first centrifuged at 500×g for 5 minutes in a Sorvall RC 2B superspeed refrigerated centrifuge (DuPont, Wilmington, Del.). The crude particulate (P1) pellet was discarded and the supernatant (S1) centrifuged 20 minutes at 28,000×g. The resultant pellet (P2) was washed in BHB, centrifuged and resuspended in 5 ml BHB, and designated the membrane fraction. The supernatant (S2) was centrifuged 50 minutes at 230,000×g in Beckman L8-M ultracentrifuge (Fullerton, Calif.). The pellet (P3) was washed in BHB, recentrifuged in an ultracentrifuge, and resuspended in 2 ml BHB as the microsomal fraction. The supernatant (S3) was saved as the soluble fraction and visually inspected for absence of cloudiness or lipid droplets. In all cases, protein was assayed by the Bradford method using Coomassie Protein Assay Reagent (Pierce, Rockford, Ill.) and BSA as standard."}, "[2]": {"biological_target": "T1, phosphodiesterase, olfactory cilia (Rattus norvegicus, UniProt Q63421)", "T1 construct": "Tissue was prepared either as cilia, using the method of Sklar et al., (1986); from tissue; host or cells: olfactory cilia preparation", "T1 sequence (Q63421 whole entry)": "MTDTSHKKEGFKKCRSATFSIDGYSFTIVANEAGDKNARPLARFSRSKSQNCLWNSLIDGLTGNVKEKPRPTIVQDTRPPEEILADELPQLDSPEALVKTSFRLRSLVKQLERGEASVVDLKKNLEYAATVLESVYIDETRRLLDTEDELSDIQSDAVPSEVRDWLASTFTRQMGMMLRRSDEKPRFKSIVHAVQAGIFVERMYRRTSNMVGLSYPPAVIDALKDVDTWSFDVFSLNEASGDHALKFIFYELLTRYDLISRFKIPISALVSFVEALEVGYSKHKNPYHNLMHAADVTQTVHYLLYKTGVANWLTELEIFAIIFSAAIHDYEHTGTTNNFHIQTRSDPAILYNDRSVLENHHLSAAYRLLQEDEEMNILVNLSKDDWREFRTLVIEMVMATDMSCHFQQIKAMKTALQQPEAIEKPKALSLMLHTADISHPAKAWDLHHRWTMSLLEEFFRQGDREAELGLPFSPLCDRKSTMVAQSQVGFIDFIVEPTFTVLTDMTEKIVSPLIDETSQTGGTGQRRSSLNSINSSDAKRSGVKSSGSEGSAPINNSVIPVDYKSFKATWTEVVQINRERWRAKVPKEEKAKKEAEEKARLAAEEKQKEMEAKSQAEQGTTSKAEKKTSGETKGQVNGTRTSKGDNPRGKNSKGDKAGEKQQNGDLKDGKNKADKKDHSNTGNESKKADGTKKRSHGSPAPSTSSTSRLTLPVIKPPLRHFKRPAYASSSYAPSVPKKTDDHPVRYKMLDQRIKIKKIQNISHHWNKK", "assay": "PDE activity in olfactory cilia", "format": "biochemical", "protocol": "as §1\n(§3) Activity is graphed as a function of total cyclic nucleotides present using olfactory cilia, or mucosa with 1 μM cGMP.\n(§4) FIG 4B is a graph of activity, 1 μM cGMP used as substrate: 100 μM EGTA (open circles); 100 μM Ca^2+ (filled circles); 100 μM Ca^2+ in the presence of 200 μM W-7 (filled squares).\nas §2"}, "cGMP-inhibited PDE": {"system": "cGMP-inhibited PDE", "settings": "reported in literature; cited from earlier work"}, "[3]": {"system": "high affinity cAMP-selective form of PDE", "settings": "reported in literature, cited from earlier work"}, "[4]": {"system": "phosphodiesterase, olfactory cilia", "assay": "PDE activity in olfactory cilia", "format": "biochemical, rat", "protocol": "as §1, §3, §4, §2"}, "[5]": {"biological_target": "T1, phosphodiesterase, olfactory cilia", "assay": "PDE activity in olfactory cilia", "format": "biochemical", "remark": "listed apart in the source"}, "[6]": {"settings": "olfactory mucosa, 1 μM cGMP, 100 μM EGTA"}, "[7]": {"settings": "10 μM drug, presence or absence of Ca^2+"}}, "note": "“Also recorded” adds a separate entry of the source. Like-named read-outs stand apart in the source and are kept apart here."}
{"compound": "CC1CC(=O)NN=C1c1ccc(-n2ccnc2)cc1", "note": "(stereo not drawn) [CI 930]", "values": [{"measurement": "reduction of PDE activity", "setting": "[1]; 100 μM Ca^2+", "result": "about 15%"}, {"measurement": "reduction of PDE activity", "setting": "[1]; 100 μM EGTA", "result": "about 30%"}, {"measurement": "inhibition at 10 µM", "setting": "[2]; 10 μM drug, regardless of assay conditions, read-out: inhibition of PDE in cilia", "result": "< 10", "unit": "%"}, {"measurement": "selectivity for cGMP-inhibited PDE", "setting": "cGMP-inhibited PDE", "result": "selective for cGMP-inhibited PDE"}]}
{"compound": "CCCCOc1cc(CC2CNC(=O)N2)ccc1OC", "note": "(stereo not drawn) [Ro20-1724]", "values": [{"measurement": "inhibition of olfactory PDE in the presence of calcium", "setting": "[1]; olfactory PDE, presence of calcium", "result": "about 15%"}, {"measurement": "inhibition of cAMP hydrolysis", "setting": "[1]; olfactory mucosa, 100 μM EGTA", "result": 66, "unit": "%"}, {"measurement": "inhibition of cGMP hydrolysis", "setting": "[1]; [6]", "result": "Neither 10 μM rolipram nor 10 μM Ro20-1724 inhibit cGMP hydrolysis"}, {"measurement": "inhibition of PDE in cilia", "setting": "[2]; [7]", "result": "neither rolipram (10 μM) nor Ro20-1724 (10 μM) inhibit PDE"}, {"measurement": "selective inhibition of the high affinity cAMP-selective form of PDE", "setting": "[3]", "result": "selectively inhibit the high affinity cAMP-selective form of PDE"}, {"measurement": "selective inhibition of the high affinity cAMP-selective form of PDE", "setting": "[3]; listed as Ro 20-1724", "result": "selective inhibitor of calcium/calmodulin-independent, high affinity PDE"}]}
{"compound": "NCCCCCCNS(=O)(=O)c1cccc2c(Cl)cccc12", "note": "[W-7]", "values": [{"measurement": "reduction of stimulation by calmodulin", "setting": "[4]; cilia, 100 μM W-7 (cAMP) or 200 μM W-7 (cGMP), 100 μM Ca^2+", "result": "substantially reduces stimulation by calmodulin"}]}
{"compound": "Nc1nc2c(ncn2[C@@H]2O[C@@H]3COP(=O)(O)O[C@H]3[C@H]2O)c(=O)[nH]1", "note": "[cGMP]", "values": [{"measurement": "maximal enhancement of cAMP hydrolysis by cGMP", "setting": "[1]; olfactory mucosa, 1 μM cGMP, 10 μM cAMP, 100 μM EGTA", "result": "20-30%"}, {"measurement": "effect of cGMP on cAMP hydrolysis when Ca^2+ and calmodulin are added", "setting": "[4]; cilia and olfactory mucosa, Ca^2+ and calmodulin added", "result": "diminishes markedly"}, {"measurement": "maximal enhancement of cAMP hydrolysis by cGMP", "setting": "[4]; cilia, 1 μM cGMP, 10 μM cAMP, 100 μM EGTA", "result": "20-30%"}]}
{"compound": "CCCCn1c(=O)c2c(ncn2CC(C)=O)n(CCCC)c1=O", "note": "[denbufylline]", "values": [{"measurement": "inhibition of cAMP hydrolysis", "setting": "[1]; olfactory mucosa, 100 μM EGTA", "result": 64, "unit": "%"}, {"measurement": "inhibition of cGMP hydrolysis", "setting": "[1]; [6]", "result": "about 20%"}, {"measurement": "inhibition at 10 µM", "setting": "[2]; 10 μM drug, 1 μM cGMP, presence or absence of Ca^2+, read-out: inhibition of ciliary cGMP PDE", "result": "15 to 20", "unit": "%"}, {"measurement": "inhibition at 10 µM", "setting": "[5]; read-out: inhibition of ciliary cAMP PDE", "result": "15 to 20", "unit": "%"}, {"measurement": "selective inhibition of the high affinity cAMP-selective form of PDE", "setting": "[3]", "result": "selectively inhibit the high affinity cAMP-selective form of PDE"}]}
{"compound": "Cc1[nH]c(=O)c(C#N)cc1-c1ccncc1", "note": "[milrinone]", "values": [{"measurement": "reduction of PDE activity", "setting": "[1]; 100 μM Ca^2+", "result": "about 15%"}, {"measurement": "reduction of PDE activity", "setting": "[1]; 100 μM EGTA", "result": "about 30%"}, {"measurement": "inhibition at 10 µM", "setting": "[2]; read-out: inhibition of PDE in cilia", "result": "< 10", "unit": "%"}, {"measurement": "selectivity for cGMP-inhibited PDE", "setting": "cGMP-inhibited PDE", "result": "selective for cGMP-inhibited PDE"}]}
{"compound": "COc1ccc(C2CNC(=O)C2)cc1OC1CCCC1", "note": "(stereo not drawn) [rolipram]", "values": [{"measurement": "inhibition of cAMP hydrolysis", "setting": "[1]; olfactory mucosa, 100 μM EGTA", "result": 49, "unit": "%"}, {"measurement": "inhibition of cGMP hydrolysis", "setting": "[1]; [6]", "result": "Neither 10 μM rolipram nor 10 μM Ro20-1724 inhibit cGMP hydrolysis"}, {"measurement": "inhibition of PDE in cilia", "setting": "[2]; [7]", "result": "neither rolipram (10 μM) nor Ro20-1724 (10 μM) inhibit PDE"}, {"measurement": "selective inhibition of the high affinity cAMP-selective form of PDE", "setting": "[3]", "result": "selectively inhibited; also recorded: selectively inhibit the high affinity cAMP-selective form of PDE"}]}
{"compound": "calmodulin", "values": [{"measurement": "effect of calmodulin on stimulation of enzyme activity by Ca^2+", "setting": "[1]; mucosal homogenates, 1 μM cAMP or cGMP", "result": "further enhances the stimulation of enzyme activity by Ca^2+"}, {"measurement": "EC50", "setting": "[2]; cilia, 1 μM cGMP, read-out: half maximal stimulation of PDE activity by calmodulin", "result": 10, "unit": "nM"}, {"measurement": "EC50", "setting": "[5]; cilia, 1 μM cAMP, read-out: half maximal stimulation of PDE activity by calmodulin", "result": 10, "unit": "nM"}]}
